The results in this text go back to US20160090556A1, “PRODUCTS COMPRISING MALODOR REDUCTION MATERIALS” (The Procter & Gamble Company, priority 2014, published 2016).

Molecules are shown by their SMILES.

One series in a line: Liquid dish neat product liquid-air partition coefficient. The format is physicochemical.
Settings: not given
For `COC1CC2CC1C1CC(C=O)CC21` (stereo not shown) [Material 1026], the “Log of liquid dish neat product liquid-air partition coefficient (Comment Code K/L)” value (from here on “Log … (Comment Code K/L)”) was “K (Log of liquid dish neat product liquid-air partition coefficient greater than or equal to −7)”.
For `C=C(C)[C@@H]1CCC2=CCC[C@@H](C)[C@]2(C)C1` [Material 1105], the “Log … (Comment Code K/L)” value is “K (Log of liquid dish neat product liquid-air partition coefficient greater than or equal to −7)”.
On the same count and under the same terms, the result for `CC1=CC(=O)CC(C)C12CCC(=C(C)C)C2` (stereo not shown) [Material 610] reads “K (Log of liquid dish neat product liquid-air partition coefficient greater than or equal to −7)”.
The same measure, in the same setting: the result for `C=CC(C)=CCC=C(C)CCC=C(C)C` [Material 710] reads “K (Log of liquid dish neat product liquid-air partition coefficient greater than or equal to −7)”; that for `C=CC(C)=CCC=C(C)CCC=C(C)C=O` [Material 691], “K (Log of liquid dish neat product liquid-air partition coefficient greater than or equal to −7)”.
Still for that read-out and setting: as for `CC1=CCC(/C=C/C(C)(C)C(C)O)C1(C)C` (stereo not shown) [Material 985], the entry is “K (Log of liquid dish neat product liquid-air partition coefficient greater than or equal to −7)”; as for `CC(C)c1cccc(C(C)CC=O)c1` (stereo not shown) [Material 914], “K (Log of liquid dish neat product liquid-air partition coefficient greater than or equal to −7)”.
As for `CCC=CCC=CCCO` [Material 929], the “Log … (Comment Code K/L)” value was “K (Log of liquid dish neat product liquid-air partition coefficient greater than or equal to −7)”.
`CC(C)=CCCC(C)c1ccc(C)cc1` (stereo not shown) [Material 713]: the “Log … (Comment Code K/L)” value is recorded as “K (Log of liquid dish neat product liquid-air partition coefficient greater than or equal to −7)”.
For `C=CCCCCCCCCCO` [Material 870], the “Log … (Comment Code K/L)” value was “K (Log of liquid dish neat product liquid-air partition coefficient greater than or equal to −7)”.
For `CCC=CCCC=CCO` [Material 865], the “Log … (Comment Code K/L)” value is given as “K (Log of liquid dish neat product liquid-air partition coefficient greater than or equal to −7)”.

Still in this series, the particulars now being: class code letter within Comment Code.
Regarding `CCCCCCCCCC(OCC)OCC` [Material 473], the “Log … (Comment Code K/L)” value is recorded as “K (Log of liquid dish neat product liquid-air partition coefficient greater than or equal to −7)”.
Regarding `CC1=CCC(C=CC(C)C(C)O)C1(C)C` (stereo not shown) [Material 416], the “Log … (Comment Code K/L)” value is given as “K (Log of liquid dish neat product liquid-air partition coefficient greater than or equal to −7)”.
For the compound `CC1OCC(c2ccccc2)O1` (stereo not shown) [Material 190], the “Log … (Comment Code K/L)” value was “K (Log of liquid dish neat product liquid-air partition coefficient greater than or equal to −7)”.
In the case of `CCCCCCCCCC(=O)OCC` [Material 397], the “Log … (Comment Code K/L)” value is on record as “K (Log of liquid dish neat product liquid-air partition coefficient greater than or equal to −7)”.
Take `O=COCC=Cc1ccccc1` [Material 551]: the “Log … (Comment Code K/L)” value is “K (Log of liquid dish neat product liquid-air partition coefficient greater than or equal to −7)”.
On the same count and under the same terms, as for `CC(C)=CCCC(C)=CCC1CCCC1=O` (stereo not shown) [Material 307], the entry is “K (Log of liquid dish neat product liquid-air partition coefficient greater than or equal to −7)”; as for `CC1/C=C/CCCCCCCCCCC(=O)C1` (stereo not shown) [Material 80], “K (Log of liquid dish neat product liquid-air partition coefficient greater than or equal to −7)”; as for `C=CC(C)(CCC=C(C)C)OC(=O)C(C)C` (stereo not shown) [Material 149], “K (Log of liquid dish neat product liquid-air partition coefficient greater than or equal to −7)”.
Consider `CC(=O)OCC1CC=C(CCC=C(C)C)CC1` (stereo not shown) [Material 74], for which the “Log … (Comment Code K/L)” value is on record as “K (Log of liquid dish neat product liquid-air partition coefficient greater than or equal to −7)”.
For the compound `CC(CCO)CCCC(C)(C)O` (stereo not shown) [Material 249], the “Log … (Comment Code K/L)” value is listed as “K (Log of liquid dish neat product liquid-air partition coefficient greater than or equal to −7)”.
The same measure, in the same setting: the result for `C=CC1(C)CCC(C(C)(C)O)CC1C(=C)C` (stereo not shown) [Material 414] reads “K (Log of liquid dish neat product liquid-air partition coefficient greater than or equal to −7)”.
Consider `CC/C=C\C/C=C\CCO` [Material 546], for which the “Log … (Comment Code K/L)” value is listed as “K (Log of liquid dish neat product liquid-air partition coefficient greater than or equal to −7)”.
As for `C=CCCCCCCCCO` [Material 470], the “Log … (Comment Code K/L)” value was “K (Log of liquid dish neat product liquid-air partition coefficient greater than or equal to −7)”.
The same measure, in the same setting: as for `CCCCCCCCOC(=O)c1ccco1` [Material 28], the entry is “K (Log of liquid dish neat product liquid-air partition coefficient greater than or equal to −7)”; as for `C=C(C)[C@@H]1CCC2=CC(=O)C[C@@H](C)[C@]2(C)C1` [Material 48], “K (Log of liquid dish neat product liquid-air partition coefficient greater than or equal to −7)”.
On to `CC(=O)/C=C/C1C(C)CCC(C)C1(C)C` (stereo not shown) [Material 71], for which the “Log … (Comment Code K/L)” value was “K (Log of liquid dish neat product liquid-air partition coefficient greater than or equal to −7)”.
With `CC(C)=C1CCC(C)(O)CC1` (stereo not shown) [Material 318], the “Log … (Comment Code K/L)” value is “K (Log of liquid dish neat product liquid-air partition coefficient greater than or equal to −7)”.
Take `CC(O)C(C)/C=C1\C[C@H]2C[C@@H]1[C@@H]1C=CC[C@H]21` (stereo partly shown) [Material 359]: the “Log … (Comment Code K/L)” value is on record as “K (Log of liquid dish neat product liquid-air partition coefficient greater than or equal to −7)”.
As to `CC(C=O)Cc1cccc(C(C)(C)C)c1` (stereo not shown) [Material 134], the “Log … (Comment Code K/L)” value is “K (Log of liquid dish neat product liquid-air partition coefficient greater than or equal to −7)”.
`CCc1ccc(CC(C)(C)C#N)cc1` [Material 361]: the “Log … (Comment Code K/L)” value is listed as “K (Log of liquid dish neat product liquid-air partition coefficient greater than or equal to −7)”.

The series is the same for the next values; noted with them: code letters K, L.
As to `CC1(C)C2CCC3(C2)C1C1(CCC3(C)C)OCCO1` (stereo not shown) [Material 1144], the “Comment Code: Log of liquid dish neat product liquid-air partition coefficient” value (shortened to “Comment Code: Log”) is “K (Log of liquid dish neat product liquid-air partition coefficient greater than or equal to −7)”.
As for `CC=Cc1ccc(O)c(OC)c1` [Material 214], the “Comment Code: Log” value is “K (Log of liquid dish neat product liquid-air partition coefficient greater than or equal to −7)”.
On to `CC(C)C(=O)OCCc1ccccc1` [Material 958], for which the “Comment Code: Log” value is given as “K (Log of liquid dish neat product liquid-air partition coefficient greater than or equal to −7)”.
As for `CC1(C)C2=C(CO)CCC(C)(C)C23CCC1C3` (stereo not shown) [Material 248], the “Comment Code: Log” value is given as “K (Log of liquid dish neat product liquid-air partition coefficient greater than or equal to −7)”.
As to `CC(C)c1ccc(CC=O)cc1` [Material 977], the “Comment Code: Log” value is listed as “K (Log of liquid dish neat product liquid-air partition coefficient greater than or equal to −7)”.
Turning to `C[C@H]1[C@@H]2C[C@H](C[C@@]13C=CC(=O)CC3)C2(C)C` [Material 1143], the “Comment Code: Log” value is recorded as “K (Log of liquid dish neat product liquid-air partition coefficient greater than or equal to −7)”.
Take `C=CC(C)(CCC=C(C)C)OC(C)=O` (stereo not shown) [Material 154]: the “Comment Code: Log” value is “K (Log of liquid dish neat product liquid-air partition coefficient greater than or equal to −7)”.
As for `CC(C=O)=Cc1ccccc1` [Material 701], the “Comment Code: Log” value is “K (Log of liquid dish neat product liquid-air partition coefficient greater than or equal to −7)”.
Same read-out and setting: as for `C=C(C)[C@@H]1CCC2=CC(=O)C[C@@H](C)[C@]2(C)C1` [Material 48], the entry is “K (Log of liquid dish neat product liquid-air partition coefficient greater than or equal to −7)”.
Consider `O=C(O)CCc1ccccc1` [Material 255], for which the “Comment Code: Log” value is listed as “K (Log of liquid dish neat product liquid-air partition coefficient greater than or equal to −7)”.
In the case of `C=C(C=O)C(C)CCC=C(C)C` (stereo not shown) [Material 819], the “Comment Code: Log” value is “K (Log of liquid dish neat product liquid-air partition coefficient greater than or equal to −7)”.
On the same count and under the same terms, the result for `CCCCCOC(=O)c1ccccc1` [Material 672] reads “K (Log of liquid dish neat product liquid-air partition coefficient greater than or equal to −7)”; that for `CC(O)C(C)/C=C1\C[C@H]2C[C@@H]1[C@@H]1C=CC[C@H]21` (stereo partly shown) [Material 359], “K (Log of liquid dish neat product liquid-air partition coefficient greater than or equal to −7)”; that for `CCC(=O)N(CC)c1cccc(C)c1` [Material 755], “K (Log of liquid dish neat product liquid-air partition coefficient greater than or equal to −7)”.
As to `CCC(C)c1nccnc1OC` (stereo not shown) [Material 845], the “Comment Code: Log” value is reported as “K (Log of liquid dish neat product liquid-air partition coefficient greater than or equal to −7)”.

The series is the same for the next values; noted with them: codes K/L of the Comment Code, Table 1.
For `CC1(C)C2CCC3(C2)C1C1(CCC3(C)C)OCCO1` (stereo not shown) [Material 1144], the “Comment Code: Log” value is given as “K (Log of liquid dish neat product liquid-air partition coefficient greater than or equal to −7)”.
With `COCc1ccc(O)c(OC)c1` [Material 1113], the “Comment Code: Log” value is on record as “K (Log of liquid dish neat product liquid-air partition coefficient greater than or equal to −7)”.
On to `C[C@H]1[C@@H]2C[C@H](C[C@@]13C=CC(=O)CC3)C2(C)C` [Material 1143], for which the “Comment Code: Log” value is “K (Log of liquid dish neat product liquid-air partition coefficient greater than or equal to −7)”.
